Results on nine compounds are retold here after patent US10047051B2, “Substituted pyridines and method of use” (AbbVie S.á{acute over (.)}r.l., priority 2015, dated 2018).

For one assay, the target named is T1, CFTR ΔF508 mutant (Homo sapiens, UniProt P13569, DEL508-508).
T1 construct: expressed in transfected cells; host or cells: CFBE41o- cells, adenoviral transduction
In words: YFP-halide influx assay for the CFTR-ΔF508 mutation (CFBE41o- cells). The assay is classed as cell-based. The note with it: forskolin 10.67 μM; for EC50: from (1−F/F0) vs concentration plot. The gist of the method: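 CFBE41o- cells transduced with adenovirus expressing CFTR ΔF508 and halide-sensitive YFP H148Q/I152L/F47L, then held 24 h at 27° C or with a CFTR modulator 24 h at 37° C. Iodide-induced quench recorded 2 min; EC50 from (1−F/F0) at 36 s versus concentration.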

The target of a further assay is T2, CFTR G551D mutant (Homo sapiens, UniProt P13569, G551D).
T2 construct: expressed in transfected cells; host or cells: HEK293 cells, reverse transfection with plasmids
The assay can be described thus: YFP-halide influx assay for the CFTR-G551D mutation (HEK293 cells). The note with it: forskolin 10.67 μM. The assay is classed as cell-based. Summed up: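 HEK293 cells reverse-transfected with CFTR G551D and halide-sensitive YFP (H148Q/I152L/F47L), expressed 24 h at 37 °C. YFP fluorescence quenching recorded for 7 s after I⁻ injection. Response = 1−F/F0; EC50 derived from 1−F/F0 vs compound concentration.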

A value given as a limit tells only on which side of the number the result lay.

For orientation: EC50 means the concentration needed to bring the measured effect to its halfway point. A low value points to an effect from little substance.

T1 sequence (P13569 with tags, fused parts or gaps DEL508-508): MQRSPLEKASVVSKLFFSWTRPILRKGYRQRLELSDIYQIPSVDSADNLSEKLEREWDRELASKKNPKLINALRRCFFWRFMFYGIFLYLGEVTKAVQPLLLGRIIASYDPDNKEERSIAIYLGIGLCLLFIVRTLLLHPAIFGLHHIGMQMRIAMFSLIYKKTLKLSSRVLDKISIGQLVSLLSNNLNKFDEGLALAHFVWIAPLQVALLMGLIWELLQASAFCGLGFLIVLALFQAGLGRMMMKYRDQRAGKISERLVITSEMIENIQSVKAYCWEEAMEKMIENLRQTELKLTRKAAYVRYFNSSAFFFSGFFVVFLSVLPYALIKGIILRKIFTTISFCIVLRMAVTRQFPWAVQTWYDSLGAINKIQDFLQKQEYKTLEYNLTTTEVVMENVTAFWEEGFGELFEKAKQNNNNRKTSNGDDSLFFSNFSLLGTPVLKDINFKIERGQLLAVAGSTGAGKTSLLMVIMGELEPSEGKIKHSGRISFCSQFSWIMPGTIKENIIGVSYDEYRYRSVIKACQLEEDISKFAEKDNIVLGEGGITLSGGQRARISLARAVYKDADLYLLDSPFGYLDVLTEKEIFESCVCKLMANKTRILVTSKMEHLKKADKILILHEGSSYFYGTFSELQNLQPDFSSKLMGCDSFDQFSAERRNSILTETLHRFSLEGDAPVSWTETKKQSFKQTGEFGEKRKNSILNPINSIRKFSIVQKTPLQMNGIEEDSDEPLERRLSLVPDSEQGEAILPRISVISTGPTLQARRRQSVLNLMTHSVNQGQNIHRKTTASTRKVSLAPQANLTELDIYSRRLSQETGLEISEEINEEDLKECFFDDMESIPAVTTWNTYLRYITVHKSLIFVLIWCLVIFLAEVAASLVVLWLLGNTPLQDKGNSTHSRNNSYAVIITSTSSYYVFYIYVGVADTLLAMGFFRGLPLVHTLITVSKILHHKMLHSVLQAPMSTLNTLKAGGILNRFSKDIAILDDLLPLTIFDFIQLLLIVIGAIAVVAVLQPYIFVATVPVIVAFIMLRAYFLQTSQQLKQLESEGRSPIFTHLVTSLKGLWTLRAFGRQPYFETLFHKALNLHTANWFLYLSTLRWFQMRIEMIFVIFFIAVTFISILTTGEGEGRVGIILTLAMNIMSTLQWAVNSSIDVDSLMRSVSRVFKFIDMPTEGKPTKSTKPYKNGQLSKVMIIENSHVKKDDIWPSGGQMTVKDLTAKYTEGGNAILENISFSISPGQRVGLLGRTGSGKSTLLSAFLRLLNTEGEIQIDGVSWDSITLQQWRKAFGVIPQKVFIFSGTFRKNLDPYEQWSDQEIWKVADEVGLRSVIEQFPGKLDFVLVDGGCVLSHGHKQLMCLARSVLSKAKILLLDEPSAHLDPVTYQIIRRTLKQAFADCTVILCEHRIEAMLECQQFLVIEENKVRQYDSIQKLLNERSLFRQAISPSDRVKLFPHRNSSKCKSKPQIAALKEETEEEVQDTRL
T2 sequence (P13569 whole entry G551D): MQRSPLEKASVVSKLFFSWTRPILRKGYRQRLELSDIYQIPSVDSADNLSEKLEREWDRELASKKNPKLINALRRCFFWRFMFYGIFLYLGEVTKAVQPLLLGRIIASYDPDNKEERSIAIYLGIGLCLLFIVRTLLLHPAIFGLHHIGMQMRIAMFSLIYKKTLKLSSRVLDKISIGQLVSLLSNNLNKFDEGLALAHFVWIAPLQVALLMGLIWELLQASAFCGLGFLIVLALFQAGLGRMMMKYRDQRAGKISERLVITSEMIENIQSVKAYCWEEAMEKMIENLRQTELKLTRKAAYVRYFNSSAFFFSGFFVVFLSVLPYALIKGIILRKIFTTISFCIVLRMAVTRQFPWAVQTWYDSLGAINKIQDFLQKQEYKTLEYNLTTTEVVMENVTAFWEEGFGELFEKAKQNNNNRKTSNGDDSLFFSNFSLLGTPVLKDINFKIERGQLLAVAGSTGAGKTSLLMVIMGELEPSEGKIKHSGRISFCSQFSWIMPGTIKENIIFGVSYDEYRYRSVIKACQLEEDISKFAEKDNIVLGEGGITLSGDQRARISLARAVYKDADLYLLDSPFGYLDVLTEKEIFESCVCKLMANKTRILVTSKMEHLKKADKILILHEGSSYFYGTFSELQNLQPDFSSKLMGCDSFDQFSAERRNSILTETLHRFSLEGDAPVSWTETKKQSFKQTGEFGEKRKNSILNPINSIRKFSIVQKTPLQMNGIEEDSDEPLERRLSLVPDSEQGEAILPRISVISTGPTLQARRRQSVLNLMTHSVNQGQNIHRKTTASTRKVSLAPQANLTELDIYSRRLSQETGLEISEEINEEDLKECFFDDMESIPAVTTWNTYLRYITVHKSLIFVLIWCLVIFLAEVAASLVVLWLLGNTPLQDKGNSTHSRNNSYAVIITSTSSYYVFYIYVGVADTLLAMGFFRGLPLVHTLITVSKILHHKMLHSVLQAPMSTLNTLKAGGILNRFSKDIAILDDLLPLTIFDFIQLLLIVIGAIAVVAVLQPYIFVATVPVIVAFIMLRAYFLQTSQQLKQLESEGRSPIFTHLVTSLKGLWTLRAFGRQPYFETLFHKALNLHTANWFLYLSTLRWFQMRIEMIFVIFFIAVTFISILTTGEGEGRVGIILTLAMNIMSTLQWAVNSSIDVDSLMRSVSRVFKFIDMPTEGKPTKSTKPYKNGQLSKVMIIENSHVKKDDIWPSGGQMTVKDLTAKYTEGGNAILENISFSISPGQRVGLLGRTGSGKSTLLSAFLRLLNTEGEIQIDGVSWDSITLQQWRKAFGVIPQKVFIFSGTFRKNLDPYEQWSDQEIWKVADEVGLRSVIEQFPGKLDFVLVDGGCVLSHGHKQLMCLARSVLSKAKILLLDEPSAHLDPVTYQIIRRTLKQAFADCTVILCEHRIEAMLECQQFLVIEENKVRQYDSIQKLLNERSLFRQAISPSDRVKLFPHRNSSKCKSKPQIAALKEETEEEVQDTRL

Turning to `Nc1cc(S(=O)(=O)c2ccc(OC(F)(F)F)cc2)cnc1C(=O)NCC1COCCO1` (stereo not drawn) [Compound 8, 3-amino-N-(1,4-dioxan-2-ylmethyl)-5-{[4-(trifluoromethoxy)phenyl]sulfonyl}pyridine-2-carboxamide], at CFTR ΔF508 mutant, the “% Activation” value is recorded as 109.5% and the EC50 came to 72.1 nM. For the same compound, on CFTR G551D mutant, the “% Activation” value came to 67.5% and the midpoint of the response, the EC50, lay at 1200 nM.

`COCCN(C)S(=O)(=O)c1cnc(C(=O)NC[C@H](C)O)c(N)c1` [Compound 277, 3-amino-N-[(2S)-2-hydroxypropyl]-5-[(2-methoxyethyl)(methyl)sulfamoyl]pyridine-2-carboxamide]: on CFTR ΔF508 mutant, the “% Activation” value came out at 65.5% and the EC50 is over 667 nM. For the same compound, on CFTR G551D mutant, the “% Activation” value is listed as 0.8% and the half-maximal effective concentration (EC50) is over 10000 nM.

Consider `Nc1cc(S(=O)(=O)c2ccc(OC(F)(F)F)cc2)cnc1C(=O)NCC(=O)NC1CC1` [Compound 58, 3-amino-N-[2-(cyclopropylamino)-2-oxoethyl]-5-{[4-(trifluoromethoxy)phenyl]sulfonyl}pyridine-2-carboxamide], for which, at CFTR ΔF508 mutant, the “% Activation” value is 92.2% and the EC50 came to 20.6 nM. For the same compound, on CFTR G551D mutant, the “% Activation” value was 42.3% and the EC50 worked out at 1070 nM.

As for `Nc1cc(S(=O)(=O)c2ccc(F)cc2)cnc1C(=O)NCC(O)C(F)(F)F` (stereo not drawn) [Compound 27, 3-amino-5-[(4-fluorophenyl)sulfonyl]-N-(3,3,3-trifluoro-2-hydroxypropyl)pyridine-2-carboxamide], at CFTR ΔF508 mutant, the “% Activation” value is listed as 101.0% and the EC50 was found to be 10.1 nM. In addition, at CFTR G551D mutant, the “% Activation” value stood at 55.0% and the response was half-maximal at 1240 nM (EC50).

With `CCC(CO)NC(=O)c1ncc(S(=O)(=O)c2ccc(OC(F)(F)F)cc2)cc1N` (stereo not drawn) [Compound 12, 3-amino-N-(1-hydroxybutan-2-yl)-5-{[4-(trifluoromethoxy)phenyl]sulfonyl}pyridine-2-carboxamide], at CFTR ΔF508 mutant, the “% Activation” value was determined as 114.5% and it took 36.1 nM to reach a half-maximal effect (EC50). At CFTR G551D mutant, the “% Activation” value was 43.8% and a half-maximal response (EC50) required 692 nM.

As to `CC(C)(C)CNC(=O)c1ncc(S(=O)(=O)c2ccc(C(F)(F)F)cc2)cc1N` [Compound 191, 3-amino-N-(2,2-dimethylpropyl)-5-{[4-(trifluoromethyl)phenyl]sulfonyl}pyridine-2-carboxamide], the “% Activation” value at CFTR ΔF508 mutant worked out at 99.7%; at CFTR G551D mutant it was 11.7%. Also, the EC50 on CFTR ΔF508 mutant is 157 nM; on CFTR G551D mutant, over 10000 nM.

As to `Nc1cc(S(=O)(=O)c2ccc(OC(F)(F)F)cc2)cnc1C(=O)NCC(O)C1CCOC1` (stereo not drawn) [Compound 73, 3-amino-N-[2-hydroxy-2-(tetrahydrofuran-3-yl)ethyl]-5-{[4-(trifluoromethoxy)phenyl]sulfonyl}pyridine-2-carboxamide], the results for the “% Activation” value on CFTR ΔF508 mutant and at CFTR G551D mutant were 102.0% and 61.0%, respectively. Besides, the values for the EC50 at CFTR ΔF508 mutant and on CFTR G551D mutant were 81.4 nM and over 3330 nM, respectively.

Regarding `Nc1cc(S(=O)(=O)c2ccc(C(F)(F)F)cc2)cnc1C(=O)N[C@H]1COCC[C@H]1O` [Compound 257, 3-amino-N-[(3S,4R)-4-hydroxytetrahydro-2H-pyran-3-yl]-5-{[4-(trifluoromethyl)phenyl]sulfonyl}pyridine-2-carboxamide], at CFTR ΔF508 mutant, the “% Activation” value came to 122.0% and the EC50 came out at 26.9 nM. Further, at CFTR G551D mutant, the “% Activation” value is 50.4% and the EC50 was determined as 760 nM.

As to `COc1ccc(CN(C)S(=O)(=O)c2cnc(C(=O)NCC(O)C(F)(F)F)c(N)c2)cc1` (stereo not drawn) [Compound 138, 3-amino-5-[(4-methoxybenzyl)(methyl)sulfamoyl]-N-(3,3,3-trifluoro-2-hydroxypropyl)pyridine-2-carboxamide], at CFTR ΔF508 mutant, the “% Activation” value is on record as 94.5% and the response was half-maximal at 17.9 nM (EC50). Further, at CFTR G551D mutant, the “% Activation” value was 49.6% and the concentration giving a half-maximal response (EC50) was determined as 684 nM.
